Test results: ChEMBL document CHEMBL1136348, “Advances toward new antidepressants beyond SSRIs: 1-aryloxy-3-piperidinylpropan-2-ols with dual 5-HT1A receptor antagonism/SSRI activities. Part 3” (Bioorg Med Chem Lett, 2003)

Columns and labels:
[1] = target: T1, 5-hydroxytryptamine receptor 1A (Homo sapiens, UniProt P08908); assay: Binding affinity towards 5-hydroxytryptamine 1A receptor in human using [3H]8-OH-DPAT as radioligand
T1 sequence (P08908 whole entry): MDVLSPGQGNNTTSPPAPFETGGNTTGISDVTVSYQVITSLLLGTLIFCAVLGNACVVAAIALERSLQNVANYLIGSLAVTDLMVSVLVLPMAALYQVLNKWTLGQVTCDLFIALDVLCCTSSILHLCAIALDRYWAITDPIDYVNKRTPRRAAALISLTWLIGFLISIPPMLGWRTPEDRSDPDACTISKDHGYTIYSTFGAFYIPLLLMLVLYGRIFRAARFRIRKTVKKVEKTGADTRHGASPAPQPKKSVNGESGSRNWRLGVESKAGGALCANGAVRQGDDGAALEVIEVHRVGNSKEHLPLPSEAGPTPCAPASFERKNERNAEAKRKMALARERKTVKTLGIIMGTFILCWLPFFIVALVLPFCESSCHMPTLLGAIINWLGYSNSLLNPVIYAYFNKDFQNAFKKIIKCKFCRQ

[2] = target: Sodium-dependent serotonin transporter (Rattus norvegicus, UniProt P31652); assay: Affinity at the 5-HT reuptake site labeled with [3H]paroxetine using rat frontal cortex membranes; format: tissue-based, Membrane
[3] = target: T2, 5-hydroxytryptamine receptor 1A (Homo sapiens) (UniProt P08908); assay: Maximal stimulation of expressed human 5-hydroxytryptamine 1A receptor assayed by [35S]GTP-gamma-S, binding; format: functional
T2 sequence (whole entry): T1 sequence (P08908 whole entry)

Sodium-dependent serotonin transporter, sequence (P31652 whole entry): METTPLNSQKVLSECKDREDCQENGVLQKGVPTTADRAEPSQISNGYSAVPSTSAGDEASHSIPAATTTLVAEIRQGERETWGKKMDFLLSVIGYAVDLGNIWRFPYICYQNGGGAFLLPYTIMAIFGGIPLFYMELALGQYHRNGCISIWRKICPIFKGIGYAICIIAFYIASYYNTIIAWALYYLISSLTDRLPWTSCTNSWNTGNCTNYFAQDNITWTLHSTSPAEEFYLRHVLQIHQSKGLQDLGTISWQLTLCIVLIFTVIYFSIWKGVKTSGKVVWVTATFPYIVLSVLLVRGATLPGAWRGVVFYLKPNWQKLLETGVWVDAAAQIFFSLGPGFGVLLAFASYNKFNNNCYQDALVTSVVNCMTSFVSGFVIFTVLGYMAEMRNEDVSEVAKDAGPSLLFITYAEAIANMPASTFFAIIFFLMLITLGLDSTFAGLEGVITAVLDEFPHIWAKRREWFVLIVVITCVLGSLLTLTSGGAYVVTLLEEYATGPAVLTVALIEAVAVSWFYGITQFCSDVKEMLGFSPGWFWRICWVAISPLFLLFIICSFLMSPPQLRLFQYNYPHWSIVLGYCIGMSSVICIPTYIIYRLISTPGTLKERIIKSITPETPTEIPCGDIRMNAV

Cc1cc2c(OC[C@@H](O)CN3CC[C@H](c4cc5cccc(F)c5s4)C[C@H]3C)cccc2[nH]1
Ki [1]: 9.8 nM | Ki [2]: 6.06 nM | Emax [3]: 6.35%

Cc1cc2c(OC[C@@H](O)CN3CC[C@@H](c4cc5cccc(F)c5s4)C[C@H]3C)cccc2[nH]1
Ki [1]: 2.12 nM | Ki [2]: 34.4 nM

Cc1cc2c(OC[C@@H](O)CN3CC[C@H](c4cc5cccc(F)c5s4)C[C@@H]3C)cccc2[nH]1
Ki [1]: 19.4 nM | Ki [2]: 47.5 nM

COc1cccc2sc([C@@H]3CCN(C[C@H](O)COc4cccc5[nH]c(C(N)=O)cc45)[C@@H](C)C3)cc12
Ki [1]: 6.36 nM | Ki [2]: 0.56 nM | Emax [3]: 12.8%

Cc1ccc2cc([C@@H]3CCN(C[C@H](O)COc4cccc5[nH]c(C)cc45)[C@@H](C)C3)sc2c1
Ki [2]: 1.28 nM

Cc1cc2c(OC[C@@H](O)CN3CC[C@@H](c4cc5ccccc5s4)C[C@@H]3C)cccc2[nH]1
Ki [1]: 7.11 nM | Ki [2]: 0.53 nM | Emax [3]: 6.09%

Cc1cc2c(OC[C@@H](O)CN3CC[C@@H](c4cc5cc(Cl)ccc5s4)C[C@@H]3C)cccc2[nH]1
Ki [1]: 15.7 nM | Ki [2]: 1.02 nM | Emax [3]: 8.42%

COc1cc(OC)c2cc([C@@H]3CCN(C[C@H](O)COc4cccc5[nH]c(C)cc45)[C@@H](C)C3)sc2c1
Ki [1]: 23.1 nM | Ki [2]: 2.79 nM | Emax [3]: 7.62%

COc1cccc2sc([C@@H]3CCN(C[C@H](O)COc4cccc5oc(C)cc45)[C@H](C)C3)cc12
Ki [1]: 4.84 nM | Ki [2]: 110 nM

Cc1cc2c(OC[C@@H](O)CN3CC[C@@H](c4cc5c(F)cccc5s4)C[C@@H]3C)cccc2[nH]1
Ki [1]: 0.75 nM | Ki [2]: 0.92 nM | Emax [3]: 3.15%

COc1cccc2sc([C@@H]3CCN(C[C@H](O)COc4cccc5[nH]c(C)cc45)[C@@H](C)C3)cc12
Ki [1]: 14.3 nM | Ki [2]: 0.86 nM | Emax [3]: 4.76%

COc1cccc2sc([C@H]3C[C@H]4CC[C@@H](C3)N4C[C@H](O)COc3cccc4[nH]ccc34)cc12
Ki [2]: 0.17 nM

COc1cccc2sc([C@@H]3CCN(C[C@H](O)COc4cccc5oc(C)cc45)[C@@H](C)C3)cc12
Ki [1]: 4.06 nM | Ki [2]: 38.5 nM | Emax [3]: 8.76%

COc1ccc2cc([C@@H]3CCN(C[C@H](O)COc4cccc5[nH]c(C)cc45)[C@@H](C)C3)sc2c1
Ki [1]: 13.5 nM | Ki [2]: 2.37 nM | Emax [3]: 3.21%

COc1cccc2sc([C@H]3CCN(C[C@H](O)COc4cccc5[nH]c(C)cc45)[C@H](C)C3)cc12
Ki [1]: 28.1 nM | Ki [2]: 3.3 nM | Emax [3]: 2.38%

COc1cccc2sc([C@@H]3C[C@H]4CC[C@@H](C3)N4C[C@H](O)COc3cccc4[nH]c(C)cc34)cc12
Ki [1]: 9.2 nM | Ki [2]: 0.69 nM | Emax [3]: 2.98%

Cc1cc2c(OC[C@@H](O)CN3CC[C@@H](c4cc5ccc(F)cc5s4)C[C@@H]3C)cccc2[nH]1
Ki [1]: 12.3 nM | Ki [2]: 0.39 nM | Emax [3]: 7.26%

COc1cccc2sc([C@@H]3CCN(C[C@H](O)COc4cccc5[nH]c(C(N)=O)cc45)[C@H](C)C3)cc12
Ki [1]: 12.7 nM | Ki [2]: 16.2 nM | Emax [3]: 7.21%

COc1cccc2sc(C3CCN(C[C@H](O)COc4cccc5[nH]c(C)cc45)C(C)(C)C3)cc12 (stereo in doubt; 28)
Ki [1]: 9.42 nM | Ki [2]: 118 nM

COc1cccc2sc([C@@H]3C[C@H]4CC[C@@H](C3)N4C[C@H](O)COc3cccc4[nH]c(C(N)=O)cc34)cc12
Ki [1]: 12.4 nM | Ki [2]: 0.37 nM | Emax [3]: 11.3%

Cc1cc2c(OC[C@@H](O)CN3CC[C@@H](c4cc5c(C)cccc5s4)C[C@@H]3C)cccc2[nH]1
Ki [1]: 10.5 nM | Ki [2]: 0.62 nM | Emax [3]: 6.32%

Cc1cc2c(OC[C@@H](O)CN3CC[C@@H](c4cc5cccc(F)c5s4)C[C@@H]3C)cccc2[nH]1
Ki [1]: 1.34 nM | Ki [2]: 1.29 nM | Emax [3]: 4.09%

COc1cccc2sc([C@H]3CCN(C[C@H](O)COc4cccc5oc(C)cc45)[C@H](C)C3)cc12
Ki [1]: 26.8 nM | Ki [2]: 15.2 nM | Emax [3]: 6.49%

COc1cccc2sc(C3CCN(C[C@H](O)COc4cccc5[nH]c(C)cc45)C(C)(C)C3)cc12 (stereo in doubt; 29)
Ki [1]: 42.8 nM | Ki [2]: 20.5 nM

COc1cccc2sc([C@@H]3CCN(C[C@H](O)COc4cccc5[nH]c(C)cc45)[C@H](C)C3)cc12
Ki [1]: 20.2 nM | Ki [2]: 29 nM | Emax [3]: 1.8%

COc1cccc2sc([C@H]3CCN(C[C@H](O)COc4cccc5[nH]c(C(N)=O)cc45)[C@H](C)C3)cc12
Ki [1]: 32 nM | Ki [2]: 1.22 nM

COc1cccc2sc([C@H]3C[C@H]4CC[C@@H](C3)N4C[C@H](O)COc3cccc4[nH]c(C)cc34)cc12
Ki [1]: 20.9 nM | Ki [2]: 0.45 nM | Emax [3]: 7.92%

COc1cccc2sc([C@@H]3C[C@H]4CC[C@@H](C3)N4C[C@H](O)COc3cccc4[nH]ccc34)cc12
Emax [3]: 7.22%

Cc1cc(C)c2cc([C@@H]3CCN(C[C@H](O)COc4cccc5[nH]c(C)cc45)[C@@H](C)C3)sc2c1
Ki [1]: 105 nM | Ki [2]: 1.99 nM

COc1cccc2sc([C@H]3CCN(C[C@H](O)COc4cccc5oc(C)cc45)[C@@H](C)C3)cc12
Ki [2]: 76.1 nM

COc1cccc2sc([C@H]3CCN(C[C@H](O)COc4cccc5[nH]c(C(N)=O)cc45)[C@@H](C)C3)cc12
Ki [2]: 6.61 nM

Cc1cc2c(OC[C@@H](O)CN3CC[C@@H](c4cc5cc(F)ccc5s4)C[C@@H]3C)cccc2[nH]1
Ki [1]: 5.65 nM | Ki [2]: 0.24 nM | Emax [3]: 9.05%
